Like-named read-outs stand apart in the source and are kept apart here.
Key:
[1] = test system: B16-F10 melanoma cells; assay: Mouse transplanted melanoma model; format: in vivo, C57BL/6j nude mice; conditions: B16-F10 transplanted mice, intragastric 500 ug/time/animal every other day, 24 days; blank 1760 mm^3
Experimental: (§1) The feeding of the mouse model in the drug evaluation follows that: mice are fed and treated in a laminar flow cabinet, with 5 nude mice in each cage, drinking water and feedstuffs are added once every 3 days, and paddings are replaced once a week; a number of mice kept in each cage is no more than 5, the mice in separate cages are kept in groups as far as possible, and the mice should not be kept in a single cage; the animal management must conform to the relevant national standards on animal feeding management, and the behavioral needs of animals should be concerned at the same time to avoid unnecessary stress; the normal physiological and behavioral needs of animals, such as defecation, urination, constant body temperature maintenance, normal activities, posture adjustment and reproduction are met; good ventilation and dry animals are kept; the animals can access to drinking water and food at will, and supplementation, replacement and cleaning operations are easily carried out; a solid and safe environment is provided to avoid accidents of animals, such as escaping or limb trapping in a gap; the animals are avoided from being damaged by sharp edges or protrusions; and the animals are not disturbed during observation.
A mouse transplanted melanoma model was established and a drug was evaluated. 2.5×10^5 B16-F10 melanoma cells were suspended in 100 μL of PBS to be inoculated into an outer side of thigh of left lower limb of C57BL/6j nude mice. One week later, when the transplanted tumor reached about 100 mm^3, the mice were randomly divided into ten groups, with 10 mice in each group, comprising a blank control group, a cordycepin group, a compound 13 group, a compound 14 group, a compound 17 group, a compound 19 group, a compound 22 group, a compound 26 group, a compound 29 group and a compound 34 group respectively. The blank control group was intragastrically administrated with a nutritional agent such as a corn steep liquor and DMSO as a solvent control every day for 24 consecutive days, and the compound groups were intragastrically administrated with corresponding compounds (500 ug/time/animal in all cases) every other day for 24 consecutive days. […] The mice were killed after the experiment, blood and corresponding tissue samples were collected, tumor bodies were immediately photographed and weighed, and some tumor tissues were fixed in a formalin solution to be further detected. Two vertical diameters (length and width) of the transplanted tumor were measured with a caliper every two days to calculate a size of the transplanted tumor, and a tumor value was calculated according to a formula: tumor volume (mm^3)=[…].

[2] = test system: wild-type AB-line zebrafish; conditions: 3 dpf to 5 dpf, 35° C.; survival rate>90% and teratogenicity<20%
Experimental: The zebrafish model is a wild-type AB-line zebrafish from College of Biotechnology and Pharmaceutical Engineering, Nanjing Tech University, and is carried out by a natural mating reproduction method, with 30 zebrafish of 2 dpf in each experimental group. The zebrafish is fed in fish culture water at 28° C. (water quality:200 mg of instant sea salt and CaCO3 are added into 1 L of reverse osmosis water with a conductivity of 480 uS/cm to 510 uS/cm, a pH value of 6.9 to 7.2, and a hardness of 53.7 mg/L to 71.6 mg/L), and the feeding management meets the requirements of international AAALAC certification.
240 3 dpf wild-type AB-line zebrafish were randomly selected in an 8-well plate, with 30 zebrafish in each well, and 3 mL of fish culture water in each well, the cordycepin was diluted according to a maximum lethal dose, dissolved in DMSO, and added into each well according to a concentration gradient (the maximum lethal dose was diluted by 100 times, in which 8 concentration gradient values were taken for the experiment), and meanwhile, a normal control group, a solvent control group G (5% glucose) and a solvent control group D (DMSO) were set. During the experiment, the zebrafish in each group were cultured at 35° C., after the zebrafish were treated to be 5 dpf with a sample to be tested, lethal and developmental malformation conditions of the zebrafish in different doses were investigated respectively, and a maximum tolerance dose (MTD) of the sample to be tested to normal zebrafish was determined under a concentration when survival rate>90% and teratogenicity<20%.

[3] = test system: gastric cancer cell line AGS; assay: MTT proliferation, gastric cancer cell line AGS; format: cell-based; conditions: read-out: IC50 (μM) in gastric cancer cells, AGS
Outline: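 Tumour cells in exponential growth were trypsinised, seeded at 2 to 4×10^4 cells/mL, cultured 24 hours, then exposed to compounds for 72 hours. MTT was added for 4 hours, formazan dissolved in DMSO and absorbance read at 570 nm. IC50 came from an S curve of inhibition rate against concentration.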

[4] = test system: Hep-1-6 liver cancer cells; assay: Mouse transplanted liver cancer model; format: in vivo, C57BL/6j nude mice; conditions: Hep-1-6 transplanted mice, intragastric 500 ug/time/animal every other day, 14 days; blank 900 mm^3
Experimental: as §1
A mouse transplanted liver cancer model was established and a drug was evaluated. […]

| SMILES | tumor volume [1] [mm^3] | Maximum tolerance dose (MTD) in zebrafish model [2] [µM] | IC50 ([3]; MTT, 72 hours, AGS) [µM] | tumor volume [4] [mm^3] | IC50 ([3]; 72 h) [µM] |
| --- | --- | --- | --- | --- | --- |
| Nc1ncnc2c1ncn2[C@@H]1O[C@H](CO)C[C@H]1O [Cordycepin, 3′-deoxyadenosine] | 600 | 995 | 372 |  |  |
| CC(C)OC(=O)C(C)NP(=O)(COC[C@@H]1CC(O)[C@H](n2cnc3c(NC(=O)c4ccncc4)ncnc32)O1)Oc1ccccc1 (stereo partly drawn) [Compound 24, isopropyl((((4-hydroxy-5-(6-(isonicotinamide)-9H-purin-9-yl)tetrahydrofuran-2-yl)methoxy)methyl)(phenoxy)phosphoryl)alanine ester] |  | 5 |  | < 100 | 0.13 |
